Source: patent US12409138B2, “Nanoparticles and nanogel drug compositions for treatment of age-related macular degeneration” (University of South Florida, priority 2019, dated 2025)

What was measured:
ARPE-19 cells [1] = test: Wound scratch assay (cell migration, with or without VEGF165); type: cell-based, human; settings: 1 μM, 48 h
Method: Wound scratch assay. Wound healing assay was performed as per the earlier reports to analyse the inhibitory effect of SM and its formulation on VEGF165 (rhVEGF; R&D Systems) induced angiogenesis. ARPE-19 cells were seeded and allowed to grow to attain 80% confluency in 24-well plates. Carefully, wounds were made by pipette tip to take out monolayer of cells as a strip. The wounds were created typically with around 300 μm of the average size and […] variation in wound width was considered for the study. To ensure removal of partially adhered cells on the plates due to creation of the wound, they were washed with sterile PBS twice. The cell wells were then treated with at 1 μM and 10 μM concentrations of SM-NP gel formulations in DMEM F12 media without FBS. Cell migration was observed by using ZEISS inverted phase contrast microscope, (Axicom 506 mono) with Axicom MRCS-ZEN2pro software and quantified by calculating the area covered by the cells because of cell migration from the wound edges towards the center area of the wound using ImageJ software. To check the effect of presence of VEGF on the cell migration, two wells were also kept at above two concentrations and treated with VEGF simultaneously. […] The width of the wound was measured using images captured by microscope. […]

[2] = tested on: VEGF-A secretion in ARPE-19 cells; test: VEGF inhibition using ELISA; type: cell-based, human
Method: VEGF inhibition using ELISA. Human retinal pigmented epithelium ARPE-19 cells were seeded in 24 well plate at density of 5×10^4 cells/mL and allowed to grow for 24 h in DMEM F12 medium supplemented with 10% FBS and were incubated at 37° C., 5% CO2 atmosphere till wells became confluent. After 24 h, the culture media was replaced by incomplete media which is DMEM F12 without FBS and treatment with formulation was given. […] Quantification of the VEGF secretion in the culture media was done by ELISA method using Human VEGF-A Platinum ELISA Kit following manufacturer's instructions. The protein content in the cells were estimated using Pierce BCA protein assay kit after collecting cell lysate and the by normalizing VEGF secretion to total protein. Samples were read using ELISA plate reader (Spectra MAX 190, Molecular Devices, California, USA) at 450 nm absorbance and 550 nm and difference was recorded, followed by calculating inhibition of VEGF secretion using standard curve.

ARPE-19 cells [3] = test: Cytotoxicity study (MTT assay); type: cell-based, human; settings: 20 μM
Method: Cell culture. ARPE-19, a human retinal pigment epithelial cell line ([…]) cells were grown and maintained in DMEM F12 medium supplemented with 10% v/v FBS and 1% 10,000 U/ml penicillin-streptomycin antibiotics. The cell cultures were allowed to incubate at 37° C. temperature, in a humidified atmosphere with 5% CO2. Cytotoxicity study. The MTT assay was carried out to determine cytotoxicity of SM-NPs as well as in SM-NPs gel in comparison with pure drug solution, in ARPE-19, human retinal pigment epithelial cells. The cells were seeded in 200 μl of DMEM F12 supplemented with 10% FBS in a 96 well plate (Corning, N.Y.) at a seeding density of 5000 cells/well and incubated for 24 h at 37° C., 5% CO2 atmosphere to allow attachment and growth of the cells. SM drug solution and formulations with various concentrations of SM were prepared by first dissolving SM in DMSO and then diluting them with DMEM F12 medium without FBS. The cells were treated with formulations after 24 h of seeding and incubated for […]. […] Intensity of color produced after dissolution of formazan crystals was quantified by measuring optical density at 595 nm wavelength by microtiter plate reader (Spectra MAX 190, Molecular Devices, California, USA). […] Cell viability were calculated graphically from concentration vs viability curves, considering the optical density of control well as 100% viable.

[4] = In vitro drug release study by dialysis; type: physicochemical
Method: In vitro drug release study. The in vitro drug release study for SM from nanoparticles and nanoparticles incorporated thermo-reversible gel were compared with plain drug solution and was studied at 37°±0.5° C. In short, drug solution in DMSO, SM-NPs and SM-NP Gel having equivalent quantity of SM (1 mg/ml) were placed in dialysis tubes (MWCO 10 KDa) and sealed tightly by using dialysis closures. Then, the dialysis tubes were immersed in 20 ml of PBS (pH 7.4) as a release medium comprising of 0.1% Tween 80 (v/v). Release medium was allowed to stir at 150 rpm and the 0.5 mL of samples were withdrawn at 0.25, 0.5, 1, 2, 4, 6, 12, 24, 48, 72, 96, 120, 144 and 168 h. The volumes were made up with fresh release medium after each sampling. The concentration of SM in a sample was determined by UV spectroscopy at 432 nm after dilution with methanol in ratio of 1:10. For all the formulations, in vitro release tests were carried out in triplicate and results were described as cumulative quantity of drug released at each point of time.

For CCN(CC)CCNC(=O)c1c(C)[nH]c(/C=C2\C(=O)Nc3ccc(F)cc32)c1C [SM solution, Sunitinib malate], the Wound recovery (ARPE-19 cells [1]) was 80±1.8%, the “VEGF secretion” value ([2]; 12 hr, compared to the NPs treatment) was “noticeably reduced” and the VEGF expression levels ([2]; 48 h, 10 μM SM equivalent, control = 100%) was 90%. For the same compound, the activity at 10 µM ([2]; Homo sapiens, ARPE-19, 12 h, 10 μM SM equivalent, control = 100%, read-out: Inhibition of VEGF levels) was 56 ± 3%, the Viability lost (ARPE-19 cells [3]; 24 h) was 25% and the Viability lost (ARPE-19 cells [3]; 48 h) was 30%. For the same compound, the Release kinetics model [4] was “first order drug release” and the “Cumulative drug release at 1 hr” value ([4]; PBS pH 7.4, 0.1% Tween 80, 37° C.) was 80%±2.5%.
